We go through 11 compounds from PubChem BioAssay (NCI).

SMILES strings stand for the structures. Where “and” joins values, the source holds several entries; their conditions need not be identical. Equal values may be shown once.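 Five concentrations, 48 hours, 96-well plates. Here, GI50 denotes the concentration required for 50% inhibition of growth. Definition used: TGI = concentration required for complete inhibition of growth.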

Test in all cases: NCI tumour cell line growth inhibition, 48 h
The test system of experiment [1] is HCC-2998 colon.
In experiment [2] the test system is DU-145 prostate.
The subject of experiment [3] is OVCAR-5 ovarian.
In experiment [4] the test system is SNB-19 CNS.
The subject of experiment [5] is SK-MEL-5 melanoma.
In experiment [6] the test system is DMS 114 small cell lung.
Experiment [7] has as its system OVCAR-4 ovarian.
Experiment [8] has as its system SF-268 CNS.
Experiment [9] has as its system K-562 leukemia.
Experiment [10] concerns DLD-1 colon.
Experiment [11] deals with SNB-78 CNS.
Experiment [12] has as its system LXFL 529 NSCLC.

As to `NC(=O)c1csc(C2OC(CO)C(O)C2O)n1` (stereo not given), the GI50 is 75.8 µM in experiment [1]; 65.7 µM in [4]; more than 31.6 µM in [5]; 96.1 µM in [8]; 8.88 µM in [9]. The TGI is more than 10000 µM in [1]; more than 10000 µM in experiment [2]; more than 9720 µM in [3]; 7290 µM in [4]; > 31.6 µM and 8280 µM in experiment [5]; 3160 µM in [6]. Moreover, the TGI was 1160 µM in experiment [7]; 9040 µM in experiment [8]; 7060 µM in experiment [9]; more than 7200 µM in experiment [10]; more than 9480 µM in experiment [11].
For `Cc1ccc(/C=C/C(=O)C(C)(C)CN2CCCCC2)cc1`, the TGI was found to be 28.8 µM in [1]; 30 µM in experiment [3]; 8.73 µM in experiment [4]; 8.36 µM in experiment [5]; 19.4 µM in [12]; 22.9 µM in experiment [7]. The TGI in experiment [8] was 36.2 µM; in experiment [9], 12 µM; in [11] it was 29.7 µM.
For `O=C1OC(Cc2ccccc2)(N2CCCC2=O)C1c1ccccc1` (stereo not given), the TGI was more than 100 µM in experiment [3]; more than 100 µM in [4]; more than 100 µM in [5]; more than 100 µM in [12]; 81 µM in [6]; more than 100 µM in experiment [7]. Also, the TGI in [8], in experiment [9], in experiment [10] and in experiment [11] was more than 100 µM in each case.
Consider `N#CC(=C1C=CC(=NO)C=C1)c1ccc(Cl)cc1`, for which the TGI in experiment [1] is 33.1 µM; in experiment [3], 28.8 µM; in experiment [4] it was more than 100 µM; in experiment [5] it was 21.3 µM; in experiment [12], 18 µM; in experiment [6], 31.5 µM. Also, the TGI in experiment [7] worked out at 60.4 µM; in experiment [8] it was 48 µM; in experiment [10] it was 39 µM.
With `Cc1ccc(-c2nnc(-c3nn(-c4ccccc4)c4nc5ccccc5nc34)o2)cc1`, the TGI in [3] is more than 100 µM; in experiment [4], 76 µM; in [5], 25.8 µM; in experiment [12], 35.7 µM; in experiment [6], 51.1 µM; in [7], 8.79 µM. The TGI in [8] is 38.4 µM; in experiment [9], 61.9 µM; in experiment [10] it was more than 100 µM; in [11], more than 100 µM.
As to `COc1cc2c(c(OC)c1OC)-c1ccc(SC)c(=O)cc1C(NC(=O)c1ccccc1)CC2` (stereo not given), the TGI in [1] is 0.144 µM; in [3], 58.7 µM; in [4], 29.1 µM; in experiment [5], less than 0.01 µM; in experiment [12] it was more than 76.5 µM; in experiment [7], 22.2 µM. Further, the TGI in experiment [8] is 53.3 µM; in experiment [9] it was more than 68.1 µM; in [10], more than 100 µM; in experiment [11], more than 90.9 µM.
With `O=C1CCC(N2Cc3cc(CNC(=O)C(F)(F)c4ccc(Cl)cc4)ccc3C2=O)C(=O)N1` (stereo not given), the GI50 is 14 µM in [1]; more than 100 µM in [2]; more than 100 µM in experiment [3]; more than 87.1 µM in experiment [4]; 41.6 µM in experiment [5]; 1.48 µM in experiment [7]. Further, the figures for the GI50 in experiment [8] and in [9] were more than 100 µM and more than 96.3 µM, respectively. For the same compound, the TGI in experiment [1], in experiment [2], in experiment [3], in [4], in experiment [5] and in experiment [7] was more than 100 µM each time. Further, the TGI in experiment [8] and in experiment [9] was more than 100 µM in each case.
`CC(C)NCCCn1c(Sc2cc3c(cc2I)OCO3)nc2c(N)ncnc21`: the GI50 in experiment [1] was 0.28 µM; in experiment [2], 0.0473 µM; in experiment [3], 3.02 µM; in [4], 0.646 µM; in [5], 0.462 µM; in [7], more than 33.3 µM. Moreover, the GI50 in experiment [8] was 2.1 µM; in experiment [9] it was 0.0708 µM. For the same compound, the TGI in experiment [1] was 11.6 µM; in experiment [2] it was more than 100 µM; in experiment [3], more than 100 µM; in experiment [4], more than 100 µM; in [5], 18 µM; in experiment [7], more than 100 µM. The TGI in experiment [8] and in experiment [9] was more than 100 µM each time.
On to `O=C(NC1CCCCC1)NS(=O)(=O)c1ccc2c(c1)CCC2`, for which the TGI in experiment [1], in [3], in experiment [4], in experiment [6], in [8] and in experiment [9] was more than 100 µM each time. Also, the TGI in experiment [10] is more than 100 µM.
For `Cc1ccc(/C=N\NC(=O)c2[nH]c3ccc(F)cc3c2-c2ccccc2)cc1`, the GI50 in experiment [1] was 0.0321 µM; in [2] it was 0.0251 µM; in experiment [3] it was 0.0591 µM; in [4], 0.0493 µM; in experiment [5], 0.0224 µM; in [7], 0.147 µM. The results for the GI50 in experiment [8] and in experiment [9] were 0.23 µM and 0.038 µM, respectively. Besides, the TGI in experiment [1] was 16.5 µM; in experiment [2], 0.0622 µM; in [3], more than 100 µM; in [4], more than 100 µM; in experiment [5], 0.0559 µM; in experiment [7] it was more than 100 µM. The values for the TGI in experiment [8] and in experiment [9] were 42.5 µM and 15.5 µM, respectively.
In the case of `O=C(Nc1ccc(OCc2nnc(-c3ccc(Cl)cc3)o2)c(F)c1)Nc1ccc(Cl)c(C(F)(F)F)c1`, the GI50 in [1] was 3.01 µM; in experiment [2], 2.48 µM; in [3], 3.66 µM; in experiment [4], 2.92 µM; in experiment [5], 2.01 µM; in experiment [7], 2.02 µM. The GI50 is 3.33 µM in [8] and 2.94 µM in experiment [9]. Besides, the TGI was 7.98 µM in experiment [1]; 6.78 µM in experiment [2]; 17.6 µM in experiment [3]; 18.3 µM in experiment [4]; 4.42 µM in experiment [5]; 7.59 µM in experiment [7]. Further, the results for the TGI in [8] and in [9] were 12.5 µM and 12.6 µM, respectively.
